In ChEMBL document CHEMBL5120838, “Synthesis and biological evaluation of geniposide derivatives as inhibitors of hyperuricemia, inflammatory and fibrosis” (Eur J Med Chem, 2022):
Calls of active or inactive are those of the source. No cut-off for these calls is given here.

Legend:
[1] = system: Mus musculus; assay: (§1) Nephroprotective activity against adenine and potassium oxonate-induced hyperuricemia Kunming mouse model assessed as appearance of clear tubular structures at 20 mg/kg, po administered via gavage and measured after 21 days by hematoxylin-eosin and Masson trichrome staining based optical microscopic analysis; format: functional, organism-based; conditions: time 21.0 day
[2] = system: Mus musculus; assay: Anti-hyperuricemic activity against adenine and potassium oxonate-induced hyperuricemia Kunming mouse model assessed as reduction in serum creatinine level at 20 mg/kg, po administered via gavage once daily for 2 weeks (reference value: 87.62 +/- 0.67 uM); format: functional
[3] = biological target: Xanthine dehydrogenase/oxidase (Bos taurus, UniProt P80457); assay: Inhibition of bovine XOD assessed as inhibition of uric acid formation using xanthine as substrate preincubated with enzyme for 5 mins followed by substrate addition and measured for 30 mins by microplate reader analysis
[4] = system: Mus musculus; assay: as §1, with “reduction in neutrophils infiltrations” for “appearance of clear tubular structures”; format: functional, organism-based; conditions: time 21.0 day
[5] = system: Mus musculus; assay: as §1, with “reduction in cytoplasmic vacuolation” for “appearance”, “renal” for “clear”, “epithelial cells” for “structures”; format: functional, organism-based; conditions: time 21.0 day
[6] = system: Mus musculus; assay: as §1, with “reduction in connective tissue hyperplasia” for “appearance of clear tubular structures”; format: functional, organism-based; conditions: time 21.0 day
[7] = system: Mus musculus; assay: Anti-hyperuricemic activity against adenine and potassium oxonate-induced hyperuricemia Kunming mouse model assessed as blood urea nitrogen level at 20 mg/kg, po administered via gavage once daily for 2 weeks (reference value: 9.88 +/- 1.21 mM); format: functional
[8] = system: Mus musculus; assay: as §1, with “reduction in renal tubule dilation” for “appearance of clear tubular structures”; format: functional, organism-based; conditions: time 21.0 day
[9] = system: Mus musculus; assay: as §1, with “reduction in tubular-interstitial lesion development” for “appearance of clear tubular structures”; format: functional, organism-based; conditions: time 21.0 day
[10] = system: Mus musculus; assay: Anti-hyperuricemic activity against adenine and potassium oxonate-induced hyperuricemia Kunming mouse model assessed as reduction in serum uric acid level at 20 mg/kg, po administered via gavage once daily for 2 weeks (reference value: 318.16 +/- 3.31 uM); format: functional
[11] = system: Mus musculus; assay: Anti-hyperuricemic activity against adenine and potassium oxonate-induced hyperuricemia Kunming mouse model assessed as reduction in serum creatinine level at 200 mg/kg, po administered via gavage once daily for 2 weeks (reference value: 87.62 +/- 0.67 uM); format: functional
[12] = system: HK-2; assay: Antiinflammatory activity in hyperuricemic human HK-2 cells assessed as reduction in IL-1beta level at 200 uM; format: functional, cell-based
[13] = system: HK-2; assay: Antiinflammatory activity in hyperuricemic human HK-2 cells assessed as reduction in TGF-beta level at 200 uM; format: functional, cell-based
[14] = system: HK-2; assay: Antiinflammatory activity in hyperuricemic human HK-2 cells assessed as reduction in TNF-alpha level at 200 uM; format: functional, cell-based
[15] = system: Mus musculus; assay: Anti-hyperuricemic activity against adenine and potassium oxonate-induced hyperuricemia Kunming mouse model assessed as reduction in serum uric acid level at 200 mg/kg, po administered via gavage once daily for 2 weeks (reference value: 318.16 +/- 3.31 uM); format: functional
[16] = system: Mus musculus; assay: Anti-hyperuricemic activity against adenine and potassium oxonate-induced hyperuricemia Kunming mouse model assessed as blood urea nitrogen level at 200 mg/kg, po administered via gavage once daily for 2 weeks (reference value: 9.88 +/- 1.21 mM); format: functional

Xanthine dehydrogenase/oxidase, sequence (P80457 whole entry): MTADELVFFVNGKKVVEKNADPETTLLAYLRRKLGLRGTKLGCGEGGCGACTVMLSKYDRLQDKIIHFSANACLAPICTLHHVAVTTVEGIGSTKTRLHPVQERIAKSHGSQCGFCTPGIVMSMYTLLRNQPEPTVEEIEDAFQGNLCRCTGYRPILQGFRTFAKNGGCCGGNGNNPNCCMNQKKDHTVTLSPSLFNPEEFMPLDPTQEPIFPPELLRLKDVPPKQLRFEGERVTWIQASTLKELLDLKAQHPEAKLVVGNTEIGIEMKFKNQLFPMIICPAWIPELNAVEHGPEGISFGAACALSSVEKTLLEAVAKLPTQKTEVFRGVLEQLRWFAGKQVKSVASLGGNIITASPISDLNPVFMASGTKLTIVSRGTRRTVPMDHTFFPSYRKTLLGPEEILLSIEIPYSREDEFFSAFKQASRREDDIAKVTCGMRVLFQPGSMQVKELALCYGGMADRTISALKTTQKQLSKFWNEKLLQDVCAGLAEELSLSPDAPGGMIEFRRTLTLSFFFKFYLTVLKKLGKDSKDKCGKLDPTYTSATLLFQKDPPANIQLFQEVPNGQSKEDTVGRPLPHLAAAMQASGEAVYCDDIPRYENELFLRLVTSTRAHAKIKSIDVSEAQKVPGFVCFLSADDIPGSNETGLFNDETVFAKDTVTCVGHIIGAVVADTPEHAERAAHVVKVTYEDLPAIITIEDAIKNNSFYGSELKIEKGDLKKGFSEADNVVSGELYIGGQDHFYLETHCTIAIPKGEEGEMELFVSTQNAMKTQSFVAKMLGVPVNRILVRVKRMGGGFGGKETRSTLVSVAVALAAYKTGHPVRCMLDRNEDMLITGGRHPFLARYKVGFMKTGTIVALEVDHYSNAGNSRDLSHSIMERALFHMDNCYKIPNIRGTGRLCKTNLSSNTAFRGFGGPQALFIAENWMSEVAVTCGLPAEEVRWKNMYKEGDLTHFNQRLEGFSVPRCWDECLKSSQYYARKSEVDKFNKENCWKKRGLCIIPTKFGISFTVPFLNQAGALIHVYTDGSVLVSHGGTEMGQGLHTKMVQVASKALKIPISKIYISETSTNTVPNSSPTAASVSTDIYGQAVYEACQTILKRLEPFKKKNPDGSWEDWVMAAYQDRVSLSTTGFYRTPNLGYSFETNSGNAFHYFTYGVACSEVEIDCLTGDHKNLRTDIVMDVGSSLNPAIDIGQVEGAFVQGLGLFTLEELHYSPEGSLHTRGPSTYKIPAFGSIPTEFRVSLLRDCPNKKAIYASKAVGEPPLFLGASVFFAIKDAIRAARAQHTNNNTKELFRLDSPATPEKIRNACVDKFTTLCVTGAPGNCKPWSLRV

## CC(=O)OCC1=CC[C@@H]2C(C(=O)Nn3cccc3)=CO[C@@H](O[C@@H]3O[C@H](COC(C)=O)[C@@H](OC(C)=O)[C@H](OC(C)=O)[C@H]3OC(C)=O)[C@H]12
[1]
  Activity: Active
[2]
  Activity: 65.57 µM
[3]
  IC50: 2.15 µM
[4]
  Activity: Active
[5]
  Activity: Active
[6]
  Activity: Active
[7]
  Activity: 6.42 mM
[8]
  Activity: Active
[9]
  Activity: Active
[10]
  Activity: 263.03 µM

## CC(=O)OCC1=CC[C@@H]2C(C(=O)Nc3ccc(Br)c4ccccc34)=CO[C@@H](O[C@@H]3O[C@H](COC(C)=O)[C@@H](OC(C)=O)[C@H](OC(C)=O)[C@H]3OC(C)=O)[C@H]12
[1]
  Activity: Active
[2]
  Activity: 57.83 µM
[3]
  IC50: 4.14 µM
[4]
  Activity: Active
[5]
  Activity: Active
[6]
  Activity: Active
[7]
  Activity: 6.02 mM
[8]
  Activity: Active
[9]
  Activity: Active
[10]
  Activity: 242.83 µM

## COC(=O)C1=CO[C@@H](O[C@@H]2O[C@H](CO)[C@@H](O)[C@H](O)[C@H]2O)[C@@H]2C(CO)=CC[C@H]12 [GENIPOSIDE]
[11]
  Activity: 75.09 µM
[12]
  Activity: Active
[3]
  IC50: 161 µM
[13]
  Activity: Active
[14]
  Activity: Active
[15]
  Activity: 236.72 µM
[16]
  Activity: 7 mM
